The results in this text go back to patent US10214492B2, “Heterocyclic inhibitors of MCT4” (Vettore, LLC, priority 2016, dated 2019).

For one data set, the target named is MCT1 (Homo sapiens (Human), UniProt P53985). Description: Assay 4: MCT1-mediated lactate transport in BT20 breast cancer cells. Type of data set: cell-based. Conditions: Table 27. A digest of the protocol:
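BT20 cells loaded with BCECF-AM (30 mM DMSO stock) for 5 min at 37° C, washed and resuspended in Tyrode's Solution pH 7.4. Lactate uptake tracked via BCECF intracellular pH signal after adding 10 mM L-lactate.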

Data set [1] in a line: Metabolic stability in mouse liver microsomes (in vitro t1/2). The data set is classed as in vitro ADME. The settings on record: for half-life at 2 µM: mouse liver microsomes 0.5 mg/mL, 2 μM compound, read-out: Mouse microsome t1/2, min; for Mouse microsome % 60 min: mouse liver microsomes. A digest of the protocol: (§1)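 Liver microsomes (0.5 mg/mL final) incubated with test compound at 2 μM final plus NADPH; samples taken at 0, 15, 30, 45 and 60 min. Parent remaining quantified by LC-MS/MS; k from ln(% remaining) vs time regression, in vitro t1/2 = −0.693/k.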
In general terms: Microsomes from liver hold many membrane-bound enzymes, among them those of drug oxidation.

Data set [2] can be described thus: Metabolic stability in human liver microsomes (in vitro t1/2). The data set is classed as in vitro ADME. Conditions: for half-life at 2 µM: read-out: Human microsome t1/2, min; for Human microsome % 60 min: human liver microsomes. A digest of the protocol: as §1
The target of another data set is MCT4 (Homo sapiens (Human), UniProt O15427). Put plainly: Assay 3: MCT4-mediated lactate transport in MDA-MB-231 breast cancer cells. Type of data set: cell-based. Conditions: MDA-MB-231 cells; lactate transport. A digest of the protocol: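 MDA-MB-231 cells loaded with BCECF-AM, 5 min at 37° C, washed and resuspended in Tyrode's Solution, pH 7.4. MCT4 lactate/proton symport followed as the intracellular pH change reported by BCECF fluorescence.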

A short description of data set [3]: Metabolic stability in rat liver microsomes (in vitro t1/2). Type of data set: in vitro ADME. The settings on record: for half-life at 2 µM: read-out: Rat microsome t1/2, min; for Rat microsome % 60 min: rat liver microsomes. On the procedure:
The following are assays that may be used to evaluate the metabolic stability of compounds of Formula (I) in human, rat, or mouse microsomes. The assays follow a common procedure recited below. 1. […] Two separated experiments were performed as follows. a) With NADPH: 10 μL of 20 mg/mL liver microsomes and 40 μL of 10 mM NADPH were added to the incubations. […] The final concentration of microsomes was 0.5 mg/mL. 3. The reaction was started with the addition of 4 μL of 200 μM control compound or test compound solutions. Verapamil was used as positive control in this study. The final concentration of test compound or control compound was 2 μM. 4. Aliquots of 50 μL were taken from the reaction solution at 0, 15, 30, 45 and 60 min. […] Samples were centrifuged at 3,220 g for 40 minutes. A 90 μL aliquot of the supernatant was mixed with 90 μL of ultra-pure H2O and then used for LC-MS/MS analysis. 5. Data analysis. All calculations were carried out using Microsoft Excel. Peak areas were determined from extracted ion chromatograms. The slope value, k, was determined by linear regression of the natural logarithm of the remaining percentage of the parent drug vs. incubation time curve. The in vitro half-life (in vitro t1/2) was determined from the slope value: in vitro t1/2=−(0.693)/k.

Setting [4] is: human liver microsomes 0.5 mg/mL, 2 μM compound.
The mark [5] stands for this setting: rat liver microsomes 0.5 mg/mL, 2 μM compound.

Structures are written as SMILES.

Sequence of MCT4 (O15427 whole entry, looked up): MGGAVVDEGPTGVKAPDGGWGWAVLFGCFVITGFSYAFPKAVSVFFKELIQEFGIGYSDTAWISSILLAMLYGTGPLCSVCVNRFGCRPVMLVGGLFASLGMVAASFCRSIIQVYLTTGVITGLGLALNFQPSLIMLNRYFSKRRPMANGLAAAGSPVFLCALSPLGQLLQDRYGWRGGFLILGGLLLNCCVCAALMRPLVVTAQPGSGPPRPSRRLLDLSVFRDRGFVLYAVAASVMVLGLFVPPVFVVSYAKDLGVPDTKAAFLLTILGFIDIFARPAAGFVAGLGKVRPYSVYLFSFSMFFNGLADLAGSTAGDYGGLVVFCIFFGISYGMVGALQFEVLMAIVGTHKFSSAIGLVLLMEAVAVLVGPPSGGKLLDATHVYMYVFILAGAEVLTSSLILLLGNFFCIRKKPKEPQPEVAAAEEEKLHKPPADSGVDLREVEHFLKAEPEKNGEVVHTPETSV
Sequence of MCT4 (P35613 whole entry partner, looked up): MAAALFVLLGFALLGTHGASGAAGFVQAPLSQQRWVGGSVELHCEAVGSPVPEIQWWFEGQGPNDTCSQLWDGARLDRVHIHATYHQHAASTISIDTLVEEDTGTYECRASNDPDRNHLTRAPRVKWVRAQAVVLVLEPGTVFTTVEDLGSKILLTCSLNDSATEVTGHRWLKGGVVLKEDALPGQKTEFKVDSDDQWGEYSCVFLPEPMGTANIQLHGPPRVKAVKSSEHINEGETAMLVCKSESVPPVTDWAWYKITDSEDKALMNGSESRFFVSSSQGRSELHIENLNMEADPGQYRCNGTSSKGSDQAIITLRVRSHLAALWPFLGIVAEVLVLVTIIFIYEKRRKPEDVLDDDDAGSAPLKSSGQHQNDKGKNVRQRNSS
Sequence of MCT1 (P53985 whole entry): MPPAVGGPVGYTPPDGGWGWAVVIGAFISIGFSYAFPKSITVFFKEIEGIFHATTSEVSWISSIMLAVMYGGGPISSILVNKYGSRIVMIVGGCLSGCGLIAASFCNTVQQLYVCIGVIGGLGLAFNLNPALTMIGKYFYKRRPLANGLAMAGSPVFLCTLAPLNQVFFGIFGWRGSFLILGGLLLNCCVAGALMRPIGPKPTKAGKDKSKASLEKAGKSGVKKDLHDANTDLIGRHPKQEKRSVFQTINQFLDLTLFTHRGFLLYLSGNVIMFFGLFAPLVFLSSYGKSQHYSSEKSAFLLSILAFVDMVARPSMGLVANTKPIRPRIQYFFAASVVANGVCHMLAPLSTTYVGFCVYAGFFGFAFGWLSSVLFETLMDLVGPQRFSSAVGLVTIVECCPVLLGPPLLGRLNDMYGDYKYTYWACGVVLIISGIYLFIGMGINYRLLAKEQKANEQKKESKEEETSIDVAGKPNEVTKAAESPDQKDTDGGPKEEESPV
Sequence of MCT1 (P35613 140-385 partner): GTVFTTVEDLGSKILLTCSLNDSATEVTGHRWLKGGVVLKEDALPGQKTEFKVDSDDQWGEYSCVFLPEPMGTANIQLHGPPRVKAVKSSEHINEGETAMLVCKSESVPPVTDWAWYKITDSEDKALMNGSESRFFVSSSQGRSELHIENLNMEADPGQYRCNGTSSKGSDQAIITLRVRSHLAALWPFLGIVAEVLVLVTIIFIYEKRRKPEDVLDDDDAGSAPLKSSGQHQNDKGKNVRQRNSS

What is called IC50 is the concentration that gives 50% inhibition. A high value points to a need for much substance. For `CC(C)Oc1ncc(-c2cc(COC(C)(C)C(=O)O)nn2Cc2ccccc2Cl)s1` [Example 133, 2-([1-[(2-Chlorophenyl)methyl]-5-[2-(propan-2-yloxy)-1,3-thiazol-5-yl]-1H-pyrazol-3-yl]methoxy)-2-methylpropanoic acid], the IC50 on MCT1 is > 33000 nM; at MCT4, 13 nM. Besides, the figures for the half-life at 2 µM in data set [1], in data set [2] (setting [4]) and in data set [3] (setting [5]) were 5.73 h, 16.8 h and 6.73 h, respectively. For the same compound, in data set [1], the “Mouse microsome % 60 min” value came out at 90%. The “Human microsome % 60 min” value in data set [2] is recorded as 97%. Also, the “Rat microsome % 60 min” value in data set [3] is listed as 91%.
Regarding `COc1cccc(-c2cc(COC(C)(C)C(=O)O)nn2Cc2ccccc2OC(C)C)c1` [Example 140, 2-([5-(3-Methoxyphenyl)-1-[[2-(propan-2-yloxy)phenyl]methyl]-1H-pyrazol-3-yl)methoxy)-2-methylpropanoic acid], the IC50 against MCT1 is 16000 nM; at MCT4 it was 8.3 nM. Moreover, the half-life at 2 µM in data set [1] is 1.07 h; in data set [2] (setting [4]), 1.82 h; in data set [3] (setting [5]), 0.983 h. Also, the “Mouse microsome % 60 min” value in data set [1] is reported as 62%. The “Human microsome % 60 min” value in data set [2] is recorded as 67%. The “Rat microsome % 60 min” value in data set [3] was found to be 48%.
Turning to `CC(C)(C)COc1cccc(-c2cc(COC(C)(C)C(=O)O)nn2-c2ccccc2N2CCC2)c1` [Example 155, 2-([1-[2-(Azetidin-1-yl)phenyl]-5-[3-(2,2-di-methylpropoxy)phenyl]-1H-pyrazol-3-yl]-methoxy)-2-methylpropanoic acid], the IC50 was > 33000 nM at MCT1 and 0.32 nM at MCT4. The half-life at 2 µM worked out at 0.633 h in data set [1], 0.867 h in data set [2] (setting [4]) and 1.22 h in data set [3] (setting [5]). Moreover, in data set [1], the “Mouse microsome % 60 min” value amounted to 37%. In addition, the “Human microsome % 60 min” value in data set [2] is reported as 62%. The “Rat microsome % 60 min” value in data set [3] is given as 70%.
Turning to `Cn1ncc2cccc(-n3nc(COC(C)(C)C(=O)O)cc3-c3cccc(OC4CCC4)c3)c21` [Example 166, 2-([5-(3-Cyclobutoxyphenyl)-1-(1-methyl-1H-indazol-7-yl)-1H-pyrazol-3-yl]-methoxy)-2-methylpropanoic acid], the values for the IC50 against MCT1 and at MCT4 were 53000 nM and 5.9 nM, respectively. In addition, the half-life at 2 µM in data set [1] came to 3.23 h; in data set [2] (setting [4]), 21.1 h. In data set [1], the “Mouse microsome % 60 min” value is 82%. Also, in data set [2], the “Human microsome % 60 min” value was 94%. The “Rat microsome t1/2, min” value in data set [3] (setting [5]) is “∞”. For the same compound, the “Rat microsome % 60 min” value in data set [3] is reported as 102%.
Take `CC(C)(C)COc1cccc(-c2cc(COC(C)(C)C(=O)O)nn2-c2ccccc2Cl)c1` [Example 177, 2-([1-(2-chlorophenyl)-5-[3-(2,2-dimethyl-propoxy)phenyl]-1H-pyrazol-3-yl]methoxy)-2-methylpropanoic acid]: the IC50 came out at 35000 nM against MCT1 and 1.4 nM on MCT4. Moreover, the half-life at 2 µM in data set [1] turned out to be 5.57 h; in data set [2] (setting [4]) it was 3.07 h; in data set [3] (setting [5]) it was 10.6 h. The “Mouse microsome % 60 min” value in data set [1] stood at 87%. Moreover, in data set [2], the “Human microsome % 60 min” value is on record as 75%. In addition, the “Rat microsome % 60 min” value in data set [3] is 90%.
As to `CC(C)(OCc1cc(-c2cccc(OCC3CCC3)c2)n(-c2ccccc2Cl)n1)C(=O)O` [Example 178, 2-([1-(2-Chlorophenyl)-5-[3-(Cyclobutyl-methoxy)phenyl]-1H-pyrazol-3-yl]-methoxy)-2-methylpropanoic acid], the values for the IC50 at MCT1 and against MCT4 were 27000 nM and 2.5 nM, respectively. Also, the half-life at 2 µM was 2.08 h in data set [1], 1.92 h in data set [2] (setting [4]) and 2.42 h in data set [3] (setting [5]). Moreover, in data set [1], the “Mouse microsome % 60 min” value is recorded as 70%. In data set [2], the “Human microsome % 60 min” value is on record as 66%. Besides, the “Rat microsome % 60 min” value in data set [3] came to 72%.
Turning to `CC(C)(OCc1cc(-c2cccc(OC3CC3)c2)n(-c2ccc(F)cc2N2CCC2)n1)C(=O)O` [Example 183, 2-([1-[2-(Azetidin-1-yl)-4-fluorophenyl]-5-(3-cyclopropoxyphenyl)-1H-pyraz.ol-3-yl]-methoxy)-2-methylpropanoic acid], the IC50 on MCT1 is 86000 nM; at MCT4, 1.3 nM. Further, the half-life at 2 µM was determined as 2.03 h in data set [1], 1.65 h in data set [2] (setting [4]) and 1.68 h in data set [3] (setting [5]). For the same compound, the “Mouse microsome % 60 min” value in data set [1] is listed as 73%. Further, the “Human microsome % 60 min” value in data set [2] was 66%. For the same compound, in data set [3], the “Rat microsome % 60 min” value is 71%.
On to `Cc1ccccc1-n1nc(COC(C)(C)C(=O)O)cc1-c1cccc(OC2CC2)c1` [Example 188, 2-([5-(3-Cyclopropoxyphenyl)-1-(2-methyl-phenyl)-1H-pyrazol-3-yl]methoxy)-2-methylpropanoic acid], for which the values for the IC50 against MCT1 and against MCT4 were 15000 nM and 7.5 nM, respectively. The half-life at 2 µM in data set [1] worked out at 23.3 h; in data set [3] (setting [5]) it was 8.17 h. Also, the “Mouse microsome % 60 min” value in data set [1] stood at 92%. Besides, in data set [2] (setting [4]), the “Human microsome t1/2, min” value is listed as “∞”. In addition, the “Human microsome % 60 min” value in data set [2] was found to be 101%. For the same compound, in data set [3], the “Rat microsome % 60 min” value is on record as 87%.
`CCOc1ccccc1Cn1nc(COC(C)(C)C(=O)O)cc1-c1cc(Cl)cc(OC)c1` [Example 196, 2-([5-(3-Chloro-5-methoxyphenyl)-1-[(2-ethoxyphenyl)methyl]1H-pyrazol-3-yl]-methoxy)-2-methylpropanoic acid]: the results for the IC50 against MCT1 and at MCT4 were 38000 nM and 1.9 nM, respectively. The values for the half-life at 2 µM in data set [1], in data set [2] (setting [4]) and in data set [3] (setting [5]) were 0.617 h, 1.47 h and 0.633 h, respectively. In data set [1], the “Mouse microsome % 60 min” value was determined as 33%. Also, in data set [2], the “Human microsome % 60 min” value amounted to 62%. Also, in data set [3], the “Rat microsome % 60 min” value is 32%.
Regarding `CCOc1ccccc1Cn1nc(COC(C)(C)C(=O)O)cc1-c1ccc2cnn(CC)c2c1` [Example 198, 2-([1-[(2-Ethoxyphenyl)methyl]-5-(1-ethyl-1H-indazol-6-yl)-1H-pyrazol-3-yl]-methoxy)-2-methylpropanoic acid], the IC50 against MCT1 came to 26000 nM; against MCT4 it was 3.5 nM. The half-life at 2 µM amounted to 4.05 h in data set [1], 3.45 h in data set [2] (setting [4]) and 3.42 h in data set [3] (setting [5]). In addition, the “Mouse microsome % 60 min” value in data set [1] is 84%. Further, the “Human microsome % 60 min” value in data set [2] amounted to 80%. In addition, in data set [3], the “Rat microsome % 60 min” value worked out at 82%.
As for `CCOc1ccccc1Cn1nc(COC(C)(C)C(=O)O)cc1-c1cccc(OC2CC2)c1` [Example 201, 2-([5-(3-Cyclopropoxyphenyl)-1-[(2-ethoxy-phenyl)methyl]-1H-pyrazol-3-yl]methoxy)-2-methylpropanoic acid], the IC50 came to 15000 nM against MCT1 and 7.2 nM at MCT4. The half-life at 2 µM in data set [1] came out at 1.38 h; in data set [2] (setting [4]), 1.38 h; in data set [3] (setting [5]) it was 0.75 h. In data set [1], the “Mouse microsome % 60 min” value worked out at 58%. The “Human microsome % 60 min” value in data set [2] stood at 58%. Also, the “Rat microsome % 60 min” value in data set [3] came out at 39%.
For `CC(C)(OCc1cc(-c2cccc(OC3CC3)c2)n(Cc2ccccc2N2CCCC2)n1)C(=O)O` [Example 202, 2-([5-(3-Cyclopropoxyphenyl)-1-[[2-(pyrrolidin-1-yl)phenyl]methyl]|-1H-pyrazol-3-yl]methoxy)-2-methylpropanoic acid], the half-maximal inhibitory concentration (IC50) stood at 23000 nM against MCT1 and 6.2 nM at MCT4. Moreover, the results for the half-life at 2 µM in data set [1], in data set [2] (setting [4]) and in data set [3] (setting [5]) were 0.633 h, 0.617 h and 0.183 h, respectively. Besides, the “Mouse microsome % 60 min” value in data set [1] is 32%. In data set [2], the “Human microsome % 60 min” value is given as 32%. The “Rat microsome % 60 min” value in data set [3] amounted to 2%.
With `CC(C)(OCc1cc(-c2cccc(OC3CC3)c2)n(-c2ccccc2N2CCCC2)n1)C(=O)O` [Example 221, 2-([5-(3-Cyclopropoxyphenyl)-1-[2-(pyrrolidin-1-yl)phenyl]-1H-pyrazol-3-yl]-methoxy)-2-methylpropanoic acid], the IC50 is 38000 nM on MCT1 and 3.2 nM against MCT4. The half-life at 2 µM in data set [1] worked out at 0.633 h; in data set [2] (setting [4]), 1.13 h; in data set [3] (setting [5]), 0.617 h. The “Mouse microsome % 60 min” value in data set [1] is listed as 34%. The “Human microsome % 60 min” value in data set [2] is given as 56%. The “Rat microsome % 60 min” value in data set [3] came out at 33%.
